Assays:
[1] = tested on: Pseudomonas aeruginosa (NBRC 13275); assay: Transmission electron microscope observation; format: cell-based; conditions: 37° C., 2 hours, complex 1,000 μg/mL, mixture 500 + 500 μg/mL; for morphological changes (TEM): lysozyme alone 500 μg/mL, chitosan alone 500 μg/mL
Method: (§1) As a control, physiological saline (0.9% NaCl solution) was used.
(§2) Then, centrifugation was performed, and the resultant pellets were washed with physiological saline (0.9% NaCl), fixed in a 1.0% buffered osmium tetroxide buffer solution in a 0.1 M phosphate buffered saline for 1 hour, embedded in 2.0% agar, dehydrated with ethanol, and then embedded in Epon 812 (TAAB Laboratories Equipment Ltd.). Ultrathin sections of 70 nm were collected on a copper grid, double-stained with uranyl acetate and lead citrate, and observed with a transmission electron microscope (H-7100) at 75 kV.

[2] = tested on: Acinetobacter baumannii; assay: Transmission electron microscope observation; format: cell-based; conditions: 37° C., 2 hours, complex 1,000 μg/mL, mixture 500 + 500 μg/mL; for morphological changes (TEM): lysozyme alone 500 μg/mL, chitosan alone 500 μg/mL
Method: as §1, §2

[3] = tested on: Pseudomonas aeruginosa (NBRC 13275); assay: Cell membrane integrity test (absorbance at 260 nm); format: cell-based
Description: (§3) The measurement of absorbance at 260 nm (A260nm) was used to estimate the amount of nucleic acid released from the cytoplasm, thereby evaluating the integrity of the cell membrane. When a bacterial cell membrane is compromised by an antibacterial agent, intracellular components are released into the extracellular space. The measurement of absorbance at 260 nm is used to estimate the amount of DNA and RNA released from the cytoplasm.
(§4) Specifically, evaluation on whether substances with absorption at 260 nm were released from the bacteria was performed by measuring the absorption at 260 nm with ND-1000 manufactured by Thermo Fisher Scientific. […] As a control, a 0.5% NaCl solution was used. The Pseudomonas aeruginosa bacterial suspension and Acinetobacter bacterial suspension prepared in the same manner as in Experimental Example 1 were resuspended in a 0.5% NaCl solution, and prepared with such a final suspension concentration that the absorbance at 420 nm was 0.7. […] At 20 minutes, 40 minutes, 60 minutes, 80 minutes, 100 minutes, and 120 minutes after the start of incubation, each solution was subjected to a 0.22 μm syringe filter to remove bacteria, and the absorbance at 260 nm (A260nm) was measured. The results for absorbance, expressed as the average of triplicate measurements and SEM (standard error of sample mean), are shown in FIGS. 4A and 4B.

[4] = tested on: Acinetobacter (JCM 6841); assay: as above; format: cell-based, Acinetobacter baumannii
Description: as §3, §4

[5] = tested on: Pseudomonas aeruginosa (NBRC 13275); assay: ONPG assay (intracellular membrane permeability test); format: cell-based; conditions: final 200, 2,000 and 5,000 μg/mL
Method: (§5) Intracellular membrane permeability was determined by ONPG assay (o-nitrophenyl-β-D-galactopyranoside (ONPG) assay). When the cell membrane is damaged, intracellular enzymes, including β-galactosidase, leak out of the cell. ONPG is normally colorless, but is hydrolyzed by β-galactosidase to galactose and o-nitrophenol, resulting in an increase in absorbance at 420 nm. The intracellular membrane permeability of bacteria can be determined by measuring the activity of cytosolic β-galactosidase released from the bacteria using ONPG as a substrate.
(§6) Specifically, evaluation on whether substances with absorption at 420 nm were released was performed by measuring the absorption at 420 nm with the spectrophotometer ASV11D. […] As a control, a 0.5% NaCl solution was used. The Pseudomonas aeruginosa bacterial suspension and Acinetobacter bacterial suspension prepared in the same manner as in Experimental Example 1 were resuspended in a 0.5% NaCl solution, and prepared with such a final suspension concentration that the absorbance at 420 nm was 1.2. […] The increase in absorbance at 420 nm (A420nm) was evaluated by performing triplicate measurements.

[6] = tested on: Acinetobacter baumannii (JCM 6841); assay: Bacteria-killing test (Experimental Example 1); format: cell-based; conditions: 2,000 μg/mL in physiological saline, 37° C., at 60 minutes and 120 minutes, versus control
Method: The bacteria-killing property of the lysozyme-chitosan complex (LYZOX (registered trademark)) against Acinetobacter and the like was measured in comparison with a mixture of lysozyme and chitosan and the like.
(§7) As a control, physiological saline (0.9% NaCl solution) was used. The Acinetobacter bacterial suspension or Pseudomonas aeruginosa bacterial suspension was prepared as follows. Pseudomonas aeruginosa (NBRC 13275 or PAO1) or Acinetobacter baumannii (JCM 6841) was grown overnight at 37° C. in trypsin soy broth (TSB), centrifuged during the logarithmic growth phase, and collected, and the bacteria were resuspended in physiological saline (0.9% NaCl), with such a final suspension concentration that the absorbance was 1.0 (10^8 to 10^9 CFU/mL) at 600 nm.
(§8) At 0 minutes, 30 minutes, 60 minutes, and 120 minutes after the start of incubation, 0.1 mL of each solution was added to a solid medium (Mueller-Hinton medium) for overnight growth, and then the bacteria count was measured. The test of the bacterial suspensions against each solution was performed three times and measured.

[7] = tested on: Pseudomonas aeruginosa (NBRC 13275); assay: Confocal laser scanning microscope observation (LIVE/DEAD BacLight); format: cell-based; conditions: final 1,000 μg/mL, 37° C., 2 hours
Method: (§9) As a control, physiological saline (0.9% NaCl solution) was used. To 500 μL of these solutions, 500 μL of Pseudomonas aeruginosa bacterial suspension and Acinetobacter bacterial suspension prepared in the same manner as in Experimental Example 1 above was added, and incubated at 37° C. for 2 hours. Then, 3 μL of LIVE/DEAD BacLight reagent (a mixture of SYTO 9 and propidium iodide (PI), which stain nucleic acids) was added and further incubated for 15 minutes at room temperature. SYTO 9 with green fluorescence labels all bacteria, while PI with red fluorescence permeates only bacteria with damaged plasma membranes, and the presence of both dyes attenuates the fluorescence of SYTO 9.

[8] = tested on: Acinetobacter (JCM 6841); assay: as above; format: cell-based, Acinetobacter baumannii; conditions: final 1,000 μg/mL, 37° C., 2 hours
Method: as §9

[9] = tested on: Acinetobacter baumannii (JCM 6841); assay: Growth suppression effect test (Experimental Example 3); format: cell-based; conditions: 2,000 μg/mL in TSB, 37° C., 6 hours, versus control
Method: (§10) As a control, TSB medium without additives was used. The Acinetobacter bacterial suspension or Pseudomonas aeruginosa bacterial suspension was prepared in the same way as in Experimental Example 1 described above. […] After 6 hours, 0.1 mL of each solution was added to a solid medium (Mueller-Hinton medium) and allowed to grow overnight, and then the bacteria count was measured. The bacterial suspensions were tested on each solution 18 times for Pseudomonas aeruginosa (NBRC 13275) and 8 times each for Pseudomonas aeruginosa (PAO1) and Acinetobacter by duplicate (mean of triplicate measurements and SEM (standard error of sample mean)) in independent experiments.

[10] = tested on: rabbit erythrocytes
Method: Each resulting mixed solution was incubated at 37° C. for 1 hour, and centrifuged at 1500 rpm for 10 minutes, and the supernatant was collected. […] Each absorbance (OD) was measured at 545 nm to calculate the hemolytic rate by using the following formula. The absorbance value at 545 nm was expressed as the average and SEM (standard error of the sample mean) of triplicate measurements.

[11] = tested on: Pseudomonas aeruginosa (NBRC 13275); assay: Growth suppression effect test at various concentrations (Experimental Example 4); format: cell-based; conditions: 2,000 μg/mL, 5,000 μg/mL and 10,000 μg/mL in TSB, 6 hours
Method: as §10

[12] = tested on: Acinetobacter (JCM 6841); assay: ONPG assay (intracellular membrane permeability test); format: cell-based, Acinetobacter baumannii; conditions: for absorbance 420 nm (ONPG), time course: up to 100 minutes
Method: as §5, §6

[13] = tested on: Acinetobacter baumannii; assay: Drug resistance acquisition test (MIC after repeated subculture); format: cell-based; conditions: after 10 subcultures at ½ MIC in LB medium
Method: (§11) The MIC was defined as the minimum concentration of the reagent without visual turbidity observed after 18 hours and 24 hours of evaluation. […] The bacteria that were not subcultured was evaluated as a control (CTL in FIGS. 10A and 10B). MIC measurements were repeated 10 times to evaluate the development of drug resistance in these bacteria.

[14] = tested on: Pseudomonas aeruginosa (NBRC 13275 and PAO 1); assay: as above; format: cell-based; conditions: after 10 subcultures at ½ MIC in LB medium
Method: as §11

[15] = tested on: Pseudomonas aeruginosa (NBRC 13275); assay: Bacteria-killing test at various concentrations (Experimental Example 2); format: cell-based; conditions: 200 μg/mL, 2,000 μg/mL and 10,000 μg/mL in physiological saline
Method: as §7, §8

[16] = final 2,000, 5,000 and 10,000 μg/mL, 0.5% NaCl, 37° C.
[17] = various concentrations, 20 to 120 minutes

Which results are given for “poly-β1→4-glucosamine [chitosan alone, reference compound]”?
morphological changes (TEM) [1]: formed numerous vesicles on their surfaces; morphological changes (TEM) [2]: formed numerous vesicles on their surfaces

What does the source list for “lysozyme alone: lysozyme (manufactured by Nippon Biocon Ltd.), enzyme that hydrolyzes mucopolysaccharides [reference compound]”?
morphological changes (TEM) [1]: formed spheroplasts; morphological changes (TEM) [2]: formed spheroplasts

“lysozyme-chitosan complex: Commercial LYZOX powder: chicken-derived lysozyme (about 14,000 Da) and about 5,000 Da water-soluble chitosan, mass ratio 1:1, bound by Maillard reaction” was tested. Which “absorbance 260 nm, dependence on concentration” value [3, 16] did it give?
The value was “increased in a concentration-dependent manner”.

What about the “absorbance 260 nm, time course” value [3, 17] of the same substance?
Its value is “increased rapidly in the first 20 minutes, and then the rate of increase decreased until 120 minutes”.

What about the “absorbance 260 nm, dependence on concentration” value [4, 16] of the same substance?
Its value is “increased in a concentration-dependent manner”.

And the “absorbance 260 nm compared to the control” value ([4]; final 2,000, 5,000 and 10,000 μg/mL, 20 to 120 minutes)?
Its value is “higher absorbance in Acinetobacter compared to the control”.

And the “absorbance 260 nm, time course” value [4, 17]?
The value was “increased rapidly in the first 20 minutes, and then the rate of increase decreased until 120 minutes”.

And the “absorbance 420 nm (ONPG), dependence on concentration” value [5]?
The value was “increased in a concentration-dependent manner”.

And the “bacteria count (bacteria-killing)” value [6]?
The value was “significantly reduced the bacteria count than the control”.

What about the “morphological changes (TEM)” value [1] of the same substance?
The value was “spherical cells with outer membrane vesicles”.

What about the “cell walls and intracellular contents (TEM)” value [1] of the same substance?
Its value is “bacterial cell walls were disrupted and the intracellular contents were released from the cells”.

And the “morphological changes (TEM)” value [2]?
The value was “spherical cells with outer membrane vesicles”.

What about the “cell walls and intracellular contents (TEM)” value [2] of the same substance?
The value was “bacterial cell walls were disrupted and the intracellular contents were released from the cells”.

And the “aggregation of bacterial cells (CLSM)” value [7]?
The value was “aggregated to form clusters”.

And the “bacterial cells with damaged membranes (red fluorescence, CLSM)” value [7]?
The value was “more bacterial cells with damaged membranes than in the corresponding control”.

And the “aggregation of bacterial cells (CLSM)” value [8]?
The value was “less aggregation of bacterial cells than Pseudomonas aeruginosa”.

And the “bacterial cells with damaged membranes (red fluorescence, CLSM)” value [8]?
Its value is “more bacterial cells with damaged membranes than in the corresponding control”.

What about the “bacteria count (growth suppression)” value [9] of the same substance?
Its value is “significantly reduced the bacteria count than the control”.

And the “hemolysis of rabbit erythrocytes” value [10]?
Its value is “almost did not hemolyze”.

What about the “growth suppression effect (bacteria count)” value [11] of the same substance?
The value was “concentration-dependent growth suppression effect”.

And the “absorbance 420 nm (ONPG), time course” value ([12]; 200 μg/mL)?
The value was “increased in the first 10 minutes and remained constant thereafter”.

What about the “absorbance 420 nm (ONPG), time course” value ([12]; 2,000 μg/mL and 5,000 μg/mL) of the same substance?
The value was “increased rapidly at first and then slowly until 100 minutes”.

What about the “effect on the inner membrane” value ([12]; ONPG assay) of the same substance?
Its value is “disrupt the inner membrane of Acinetobacter”.

And the “absorbance 420 nm (ONPG), dependence on concentration” value ([12]; final 200, 2,000 and 5,000 μg/mL)?
The value was “increased in a concentration-dependent manner”.

And the “acquisition of drug resistance (change of MIC)” value [13]?
The value was “did not acquire resistance”.

And the “acquisition of drug resistance (change of MIC)” value [14]?
The value was “did not acquire resistance”.

And the “bacteria-killing activity (bacteria count)” value [15]?
The value was “concentration-dependent bacteria-killing activity”.
